Calls of active or inactive are those of the source. The calls are words filed in the database; no cut-off is given here.
How the values were obtained:
[1] = molecular target: Fibroblast growth factor receptor 2 (Homo sapiens, UniProt P21802, V564F)
[2] = molecular target: Fibroblast growth factor receptor 3 (Homo sapiens, UniProt P22607); assay: Inhibition of wild type FGFR3 (unknown origin) by caliper mobility shift assay
[3] = molecular target: Fibroblast growth factor receptor 3 (Homo sapiens, UniProt P22607, V555L); assay: Inhibition of FGFR3 V555L mutant (unknown origin) by caliper mobility shift assay
Sequence of Fibroblast growth factor receptor 3 (Homo sapiens, UniProt P22607, V555L) (P22607 23-806 V555L limits assumed): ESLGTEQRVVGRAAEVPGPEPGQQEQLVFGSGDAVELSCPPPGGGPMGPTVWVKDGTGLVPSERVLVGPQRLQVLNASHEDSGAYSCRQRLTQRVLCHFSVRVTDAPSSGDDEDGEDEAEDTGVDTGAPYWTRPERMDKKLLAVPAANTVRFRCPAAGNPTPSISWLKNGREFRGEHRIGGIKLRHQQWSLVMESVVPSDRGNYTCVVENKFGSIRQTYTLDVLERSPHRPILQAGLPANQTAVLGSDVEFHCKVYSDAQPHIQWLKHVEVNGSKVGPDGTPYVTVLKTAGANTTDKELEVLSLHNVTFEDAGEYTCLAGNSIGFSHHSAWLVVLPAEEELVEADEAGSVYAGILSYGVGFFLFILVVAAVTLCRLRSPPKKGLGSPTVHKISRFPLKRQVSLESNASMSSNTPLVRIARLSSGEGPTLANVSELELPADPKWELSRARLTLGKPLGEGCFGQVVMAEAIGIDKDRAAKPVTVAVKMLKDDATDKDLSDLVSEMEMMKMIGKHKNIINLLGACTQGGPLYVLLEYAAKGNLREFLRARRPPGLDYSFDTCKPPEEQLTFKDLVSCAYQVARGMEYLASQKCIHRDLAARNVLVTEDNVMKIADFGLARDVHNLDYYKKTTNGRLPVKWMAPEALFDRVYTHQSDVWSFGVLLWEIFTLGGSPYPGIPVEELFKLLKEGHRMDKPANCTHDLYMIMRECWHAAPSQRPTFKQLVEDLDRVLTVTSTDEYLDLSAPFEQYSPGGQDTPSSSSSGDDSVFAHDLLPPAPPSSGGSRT

[4] = molecular target: Fibroblast growth factor receptor 3 (Homo sapiens, UniProt P22607, V555M)
Sequence of Fibroblast growth factor receptor 3 (Homo sapiens, UniProt P22607, V555M) (P22607 23-806 V555M limits assumed): as the sequence (P22607 23-806 V555L limits assumed) above, with L533M counted along it

[5] = molecular target: Platelet-derived growth factor receptor beta (Homo sapiens) (UniProt P09619); assay: Inhibition of PDGFRbeta (unknown origin)
Sequence of Platelet-derived growth factor receptor beta (Homo sapiens) (P09619 whole entry): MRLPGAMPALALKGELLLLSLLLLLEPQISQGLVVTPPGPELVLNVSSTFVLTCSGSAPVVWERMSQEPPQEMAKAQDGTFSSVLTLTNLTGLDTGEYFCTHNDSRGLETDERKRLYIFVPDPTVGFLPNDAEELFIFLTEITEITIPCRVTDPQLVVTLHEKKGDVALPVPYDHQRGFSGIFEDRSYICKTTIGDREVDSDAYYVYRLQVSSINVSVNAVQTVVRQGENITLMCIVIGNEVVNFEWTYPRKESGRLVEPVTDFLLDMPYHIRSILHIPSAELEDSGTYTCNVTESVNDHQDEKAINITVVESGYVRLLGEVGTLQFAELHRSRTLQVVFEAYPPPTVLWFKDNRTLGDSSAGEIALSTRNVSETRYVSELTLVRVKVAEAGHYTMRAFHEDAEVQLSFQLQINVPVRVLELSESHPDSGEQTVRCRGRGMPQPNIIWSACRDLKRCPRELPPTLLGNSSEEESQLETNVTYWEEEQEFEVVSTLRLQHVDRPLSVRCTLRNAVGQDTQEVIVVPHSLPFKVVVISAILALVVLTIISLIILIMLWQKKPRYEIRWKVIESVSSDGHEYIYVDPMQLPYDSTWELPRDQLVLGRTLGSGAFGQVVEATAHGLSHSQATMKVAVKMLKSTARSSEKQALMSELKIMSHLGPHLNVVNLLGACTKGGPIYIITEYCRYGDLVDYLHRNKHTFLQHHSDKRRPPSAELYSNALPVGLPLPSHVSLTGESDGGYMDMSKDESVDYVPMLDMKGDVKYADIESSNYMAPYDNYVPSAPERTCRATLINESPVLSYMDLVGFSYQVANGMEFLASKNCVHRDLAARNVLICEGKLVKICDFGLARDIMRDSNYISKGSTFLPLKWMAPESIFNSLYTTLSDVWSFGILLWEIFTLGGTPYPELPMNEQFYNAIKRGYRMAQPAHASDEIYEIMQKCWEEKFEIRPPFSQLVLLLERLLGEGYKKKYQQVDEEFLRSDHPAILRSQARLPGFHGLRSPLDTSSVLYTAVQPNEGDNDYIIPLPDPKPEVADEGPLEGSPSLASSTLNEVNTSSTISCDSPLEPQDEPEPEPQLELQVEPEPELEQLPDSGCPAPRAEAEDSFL

[6] = molecular target: Epidermal growth factor receptor (Homo sapiens) (UniProt P00533); assay: Inhibition of EGFR (unknown origin)
Sequence of Epidermal growth factor receptor (Homo sapiens) (P00533 whole entry): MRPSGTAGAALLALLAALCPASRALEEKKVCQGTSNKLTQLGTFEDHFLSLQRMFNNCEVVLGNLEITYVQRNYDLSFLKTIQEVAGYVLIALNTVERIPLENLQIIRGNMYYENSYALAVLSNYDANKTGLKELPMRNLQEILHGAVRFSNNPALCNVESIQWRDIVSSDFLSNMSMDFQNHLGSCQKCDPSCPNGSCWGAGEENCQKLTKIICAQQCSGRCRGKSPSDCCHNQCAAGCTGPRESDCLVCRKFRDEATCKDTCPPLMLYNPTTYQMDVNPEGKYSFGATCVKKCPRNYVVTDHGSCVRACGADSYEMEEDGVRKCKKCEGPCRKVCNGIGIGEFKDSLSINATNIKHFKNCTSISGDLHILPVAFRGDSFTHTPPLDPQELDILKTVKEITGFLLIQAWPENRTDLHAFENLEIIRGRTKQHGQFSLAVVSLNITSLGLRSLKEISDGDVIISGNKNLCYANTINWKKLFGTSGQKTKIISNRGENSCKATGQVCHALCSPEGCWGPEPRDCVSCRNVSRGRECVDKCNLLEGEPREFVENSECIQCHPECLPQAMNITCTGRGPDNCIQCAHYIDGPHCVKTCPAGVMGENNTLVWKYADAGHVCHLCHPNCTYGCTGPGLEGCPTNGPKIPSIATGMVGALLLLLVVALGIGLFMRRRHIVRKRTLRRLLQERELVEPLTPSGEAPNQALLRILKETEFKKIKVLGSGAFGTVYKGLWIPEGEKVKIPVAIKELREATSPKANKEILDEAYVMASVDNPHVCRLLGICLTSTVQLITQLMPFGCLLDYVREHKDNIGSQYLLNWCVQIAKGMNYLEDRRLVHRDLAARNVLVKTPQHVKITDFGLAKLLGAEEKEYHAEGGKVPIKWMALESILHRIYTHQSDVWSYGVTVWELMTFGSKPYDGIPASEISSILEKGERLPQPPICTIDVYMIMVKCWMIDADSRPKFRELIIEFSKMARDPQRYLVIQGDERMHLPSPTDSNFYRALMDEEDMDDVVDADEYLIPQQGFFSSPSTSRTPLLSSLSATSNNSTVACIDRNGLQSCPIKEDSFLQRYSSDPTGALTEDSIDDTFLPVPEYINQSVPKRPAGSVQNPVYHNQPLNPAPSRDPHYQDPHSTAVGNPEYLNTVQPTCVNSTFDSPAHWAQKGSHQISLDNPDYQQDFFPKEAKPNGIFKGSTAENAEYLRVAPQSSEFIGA

[7] = test system: A549; assay: Inhibition of colony formation in human A549 cells at 0.25 to 1.0 uM incubated for 48 hrs by crystal violet staining based assay; assay type: functional, cell-based; conditions: dose 0.25-1 µM
[8] = test system: NCI-H1581; assay: Inhibition of DNA replication in human NCI-H1581 cells incubated for 1 hrs by EdU staining based analysis; assay type: functional, cell-based; conditions: dose 100.0 µM
[9] = test system: A549; assay: Inhibition of AKT (unknown origin) phosphorylation in human A549 cells at 250 to 1000 nM by Western blotting analysis; assay type: cell-based; conditions: dose 250-1000 nM
[10] = test system: NCI-H1581; assay: Inhibition of cell migration in human NCI-H1581 cells at 10 to 40 nM incubated for 48 hrs by crystal violet staining based transwell assay; assay type: functional; conditions: dose 10-40 nM
[11] = test system: A549; assay: Inhibition of cell migration in human A549 cells at 10 to 40 nM incubated for 48 hrs by crystal violet staining based transwell assay; assay type: functional; conditions: dose 10-40 nM
[12] = Cmax in male Sprague-Dawley rat at 10 mg/kg, po by UHPLC-MS/MS analysis; assay type: ADME, organism-based; conditions: in vivo
[13] = AUC(0 to t) in male Sprague-Dawley rat at 2 mg/kg, iv by UHPLC-MS/MS analysis; assay type: ADME, organism-based; conditions: in vivo
[14] = AUC(0 to infinity) in male Sprague-Dawley rat at 10 mg/kg, po by UHPLC-MS/MS analysis; assay type: ADME, organism-based; conditions: in vivo
[15] = Oral bioavailability in male Sprague-Dawley rat at 2 mg/kg, iv by UHPLC-MS/MS analysis; assay type: ADME, organism-based; conditions: in vivo
[16] = Toxicity in ICR mouse assessed as change in heart weight at 80 mg/kg, po measured after 7 days; assay type: organism-based; conditions: in vivo, 168 h, time 7 day
[17] = Toxicity in ICR mouse assessed as change in liver weight at 80 mg/kg, po measured after 7 days; assay type: organism-based; conditions: in vivo, 168 h, time 7 day
[18] = Hepatotoxicity in ICR mouse assessed as change in AST level at 80 mg/kg, po; assay type: toxicity, organism-based; conditions: in vivo
[19] = Hepatotoxicity in ICR mouse assessed as change in ALT level at 80 mg/kg, po; assay type: toxicity, organism-based; conditions: in vivo
[20] = Nephrotoxicity in ICR mouse assessed as change in Cr level at 80 mg/kg, po; assay type: toxicity, organism-based; conditions: in vivo
[21] = molecular target: Fibroblast growth factor receptor 2 (Homo sapiens, UniProt P21802); assay: Covalent irreversible binding affinity to FGFR2 (unknown origin) by MALDI-TOF MS analysis
Sequence of Fibroblast growth factor receptor 2 (Homo sapiens, UniProt P21802) (P21802 22-821 limits assumed): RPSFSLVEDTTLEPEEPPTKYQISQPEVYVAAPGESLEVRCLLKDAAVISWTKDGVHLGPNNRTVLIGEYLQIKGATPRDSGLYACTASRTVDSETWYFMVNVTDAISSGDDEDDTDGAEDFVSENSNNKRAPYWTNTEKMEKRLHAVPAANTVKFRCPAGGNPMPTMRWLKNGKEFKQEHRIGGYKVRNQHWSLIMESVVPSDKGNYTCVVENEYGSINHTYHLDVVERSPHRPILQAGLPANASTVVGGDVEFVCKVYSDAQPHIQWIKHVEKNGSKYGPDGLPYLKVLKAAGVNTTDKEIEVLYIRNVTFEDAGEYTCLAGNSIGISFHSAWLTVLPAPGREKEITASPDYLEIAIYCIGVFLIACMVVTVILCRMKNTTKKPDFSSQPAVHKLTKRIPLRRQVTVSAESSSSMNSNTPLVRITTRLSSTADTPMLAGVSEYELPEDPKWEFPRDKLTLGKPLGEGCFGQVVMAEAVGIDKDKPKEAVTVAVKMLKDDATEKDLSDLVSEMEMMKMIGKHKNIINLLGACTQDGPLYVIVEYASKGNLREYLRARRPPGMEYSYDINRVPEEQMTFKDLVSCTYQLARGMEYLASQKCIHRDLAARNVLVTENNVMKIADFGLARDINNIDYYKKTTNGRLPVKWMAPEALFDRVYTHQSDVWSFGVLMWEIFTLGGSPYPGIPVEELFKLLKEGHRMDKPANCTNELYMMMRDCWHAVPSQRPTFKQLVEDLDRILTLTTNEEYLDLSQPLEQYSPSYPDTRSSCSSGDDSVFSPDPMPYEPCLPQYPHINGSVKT

[22] = Antitumor activity against rat L6 cells harboring FGFR V561M mutant xenografted in BALB/c nude mouse assessed as tumor growth inhibition at 30 mg/kg relative to control; assay type: functional; conditions: read-out: TGI
[23] = Toxicity in BALB/c nude mouse xenografted with rat L6 cells harboring FGFR V561M mutant assessed as change in body weight at 30 to 60 mg/kg and measured daily; assay type: organism-based; conditions: in vivo, dose 30-60 mg/kg
[24] = Toxicity in BALB/c nude mouse xenografted with rat L6 cells harboring FGFR V561M mutant assessed as change in heart weight at 30 to 60 mg/kg and measured daily for 14 days; assay type: organism-based; conditions: in vivo, 336 h, dose 30-60 mg/kg, time 14 day
[25] = Toxicity in BALB/c nude mouse xenografted with rat L6 cells harboring FGFR V561M mutant assessed as change in liver weight at 30 to 60 mg/kg and measured daily for 14 days; assay type: organism-based; conditions: in vivo, 336 h, dose 30-60 mg/kg, time 14 day
[26] = Toxicity in BALB/c nude mouse xenografted with rat L6 cells harboring FGFR V561M mutant assessed as change in spleen weight at 30 to 60 mg/kg and measured daily for 14 days; assay type: organism-based; conditions: in vivo, 336 h, dose 30-60 mg/kg, time 14 day
[27] = Toxicity in BALB/c nude mouse xenografted with rat L6 cells harboring FGFR V561M mutant assessed as change in lung weight at 30 to 60 mg/kg and measured daily for 14 days; assay type: organism-based; conditions: in vivo, 336 h, dose 30-60 mg/kg, time 14 day
[28] = Toxicity in BALB/c nude mouse xenografted with rat L6 cells harboring FGFR V561M mutant assessed as change in kidney weight at 30 to 60 mg/kg and measured daily for 14 days; assay type: organism-based; conditions: in vivo, 336 h, dose 30-60 mg/kg, time 14 day
[29] = test system: Mus musculus; assay: In vivo inhibition of FGFR1 signaling pathway in BALB/c nude mouse xenografted with rat L6 cells harboring FGFR1 V561M mutant assessed as suppression of FGFR1 phosphorylation in tumor at 60 mg/kg by Western blotting analysis; assay type: functional, organism-based
[30] = test system: Mus musculus; assay: In vivo inhibition of AKT phosphorylation in BALB/c nude mouse xenografted with rat L6 cells harboring FGFR1 V561M mutant assessed as suppression of AKT level in tumor at 60 mg/kg by Western blotting analysis; assay type: functional, organism-based
[31] = test system: Mus musculus; assay: In vivo inhibition of ERK phosphorylation in BALB/c nude mouse xenografted with rat L6 cells harboring FGFR1 V561M mutant assessed as suppression of ERK level in tumor at 60 mg/kg by Western blotting analysis; assay type: functional, organism-based
[32] = test system: NCI-H1581; assay: Antitumor activity against human NCI-H1581 cells xenografted in BALB/c nude mouse assessed as tumor growth inhibition at 60 mg/kg relative to control; assay type: functional; conditions: read-out: TGI
[33] = test system: Mus musculus; assay: In vivo inhibition of AKT phosphorylation in BALB/c nude mouse xenografted with human NCI-H1581 cells assessed as reduction in AKT phosphorylation level in tumor by Western blotting analysis; assay type: functional, organism-based
[34] = Toxicity in BALB/c nude mouse xenografted with human NCI-H1581 cells assessed as change in body weight
[35] = Toxicity in BALB/c nude mouse xenografted with human NCI-H1581 cells assessed as change in heart weight and measured after 14 days; assay type: tissue-based; conditions: 336 h, time 14 day
[36] = Toxicity in BALB/c nude mouse xenografted with human NCI-H1581 cells assessed as change in spleen weight and measured after 14 days; conditions: 336 h, time 14 day
[37] = Toxicity in BALB/c nude mouse xenografted with human NCI-H1581 cells assessed as change in lung weight and measured after 14 days; assay type: tissue-based; conditions: 336 h, time 14 day
[38] = Toxicity in BALB/c nude mouse xenografted with human NCI-H1581 cells assessed as change in kidney weight and measured after 14 days; assay type: tissue-based; conditions: 336 h, time 14 day
[39] = Toxicity in BALB/c nude mouse xenografted with human NCI-H1581 cells assessed as change in ALT level at 60 mg/kg; assay type: organism-based; conditions: in vivo
[40] = test system: NCI-H1581; assay: Antitumor activity against human NCI-H1581 cells xenografted in BALB/c nude mouse assessed as inhibition of tumor cell proliferation by Ki-67 staining based analysis; assay type: functional

Sequence of Fibroblast growth factor receptor 2 (Homo sapiens, UniProt P21802, V564F) (P21802 22-821 V564F limits assumed): as the sequence (P21802 22-821 limits assumed) above, with V543F counted along it
Sequence of Fibroblast growth factor receptor 3 (Homo sapiens, UniProt P22607) (P22607 whole entry): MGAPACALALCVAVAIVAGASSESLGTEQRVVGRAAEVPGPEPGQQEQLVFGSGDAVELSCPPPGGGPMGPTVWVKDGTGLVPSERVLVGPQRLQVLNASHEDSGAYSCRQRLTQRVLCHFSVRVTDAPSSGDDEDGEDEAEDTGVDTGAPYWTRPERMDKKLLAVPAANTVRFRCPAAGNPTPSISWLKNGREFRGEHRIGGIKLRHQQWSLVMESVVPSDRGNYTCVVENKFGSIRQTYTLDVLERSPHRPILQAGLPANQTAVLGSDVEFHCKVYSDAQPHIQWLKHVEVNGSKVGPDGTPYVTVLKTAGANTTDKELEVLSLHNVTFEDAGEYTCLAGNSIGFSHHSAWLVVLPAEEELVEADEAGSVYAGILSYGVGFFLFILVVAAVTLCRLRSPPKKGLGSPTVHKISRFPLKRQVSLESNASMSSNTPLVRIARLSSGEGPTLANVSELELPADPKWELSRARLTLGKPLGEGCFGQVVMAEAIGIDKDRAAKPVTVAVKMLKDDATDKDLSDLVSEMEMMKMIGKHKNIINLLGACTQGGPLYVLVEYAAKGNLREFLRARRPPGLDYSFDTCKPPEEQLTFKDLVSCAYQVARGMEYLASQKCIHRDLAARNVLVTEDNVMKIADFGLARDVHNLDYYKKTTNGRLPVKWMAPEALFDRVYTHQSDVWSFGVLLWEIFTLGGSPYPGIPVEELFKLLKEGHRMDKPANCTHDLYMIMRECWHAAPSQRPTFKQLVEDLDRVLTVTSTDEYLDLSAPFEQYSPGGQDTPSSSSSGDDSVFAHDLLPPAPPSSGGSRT

## C=CC(=O)Nc1ccc(Nc2nc(Nc3ccc(N4C[C@@H](C)N[C@@H](C)C4)c(OC)c3)ncc2Cl)cc1Cl
[1]
  IC50: 1.5 nM
[2]
  IC50: 19.4 nM
[3]
  IC50: 2.2 nM
[4]
  IC50: 4.3 nM
[5]
  inhibition: Not active; Moderate To Weak Inhibitory Activity Observed
[6]
  inhibition: Not active; Moderate To Weak Inhibitory Activity Observed
[7]
  inhibition: Active
[8]
  inhibition: Dose-dependent-effect
[9]
  inhibition: Dose-dependent-effect
[10]
  inhibition: Active
[11]
  inhibition: Active
[12]
  Cmax: 2250 ng/mL
[13]
  AUC(0-t): 1940 ng·h/mL
[14]
  AUC(0-inf): 12900 ng·h/mL
[15]
  bioavailability: 47.7%
[16]
  Activity: Non-toxic
[17]
  Activity: Non-toxic
[18]
  Activity: Non-toxic
[19]
  Activity: Non-toxic
[20]
  Activity: Non-toxic
[21]
  Activity: Active
[22]
  inhibition in vivo at 30 mg/kg: 48%
[23]
  Activity: Non-toxic
[24]
  Activity: Non-toxic
[25]
  Activity: Non-toxic
[26]
  Activity: Non-toxic
[27]
  Activity: Non-toxic
[28]
  Activity: Non-toxic
[29]
  inhibition: Active
[30]
  inhibition: Active
[31]
  inhibition: Active
[32]
  inhibition in vivo at 60 mg/kg: 61%
[33]
  inhibition: Active
[34]
  Activity: Non-toxic
[35]
  Activity: Non-toxic
[36]
  Activity: Non-toxic
[37]
  Activity: Non-toxic
[38]
  Activity: Non-toxic
[39]
  Activity: Non-toxic
[40]
  Activity: Active
